According to patent publication US20230095428A1, “[6R]-MTHF IN 5-FU BASED CHEMOTHERAPY OF BRAF- OR KRAS-MUTATED COLORECTAL CANCER” (Isofol Medical AB, priority 2021, published 2023):

How the values were obtained:
[1] = cited from earlier work; for pharmacokinetic comparison of leucovorin and levoleucovorin: in vivo
[2] = in vitro; cited from earlier work
[3] = tested on: solid colorectal cancer tumors (mCRC, incl. BRAF- or KRAS-mutated); assay: Clinical study ISO-CC-005 (Phase I/IIa), safety extension cohorts and follow-up study: tumour response by CT, ORR per RECIST 1.1; type: in vivo, human; conditions: 19 patients harbouring either mutated KRAS or BRAF; 16 weeks and beyond; 120 mg/m2 arfolitixorin
Text: As used herein, the term ORR shall refer to the Objective Response Rate, i.e. the proportion of patients with a reduction in tumor burden of a predefined amount. […] (Note: the appearance of one or more new lesions is also considered progression). […] As used herein, the term best ORR shall refer to the best overall response rate as per RECIST guideline version 1.1 for the treatment period, where applicable. Arfolitixorin has been in development for a number of years and has been studied in several clinical studies. […] 2019. The completion of the study was announced in January 2020. In total, 105 patients were included in the study. Applicant completed the dose definition part of ISO-CC-005 in March 2018, which evaluated the safety and efficacy of arfolitixorin in patients with mCRC. Shortly after, applicant started two additional treatment groups in 2018 to generate more safety and efficacy data, i.e. the safety extension Cohort #18 (Treatment Arm #4) and Cohort #19 (Treatment Arm #6). The aim was to evaluate as many patients as possible from the additional treatment groups after a treatment period of 16 weeks+. On 30 Sep. […] The goal with the Dose-finding Part of the Main Study was to establish the Arfolitixorin dose level assessed as having the most favourable profile, i.e. the selected phase 2 dose (SP2D). […] Response was measured in short- and long-term assessments. […]

SMILES: Nc1nc(=O)c2c([nH]1)NC[C@H](CNc1ccc(C(=O)N[C@@H](CCC(=O)O)C(=O)O)cc1)N2C=O [1-LV]
- pharmacokinetic comparison of leucovorin and levoleucovorin [1]: pharmacokinetically identical
- conversion to the biologically available methyl-tetrahydrofolate form [2]: rapidly converted

SMILES: Nc1nc2c(c(=O)[nH]1)N(C=O)C(CNc1ccc(C(=O)N[C@@H](CCC(=O)O)C(=O)O)cc1)CN2 (some centres unmarked) [Leucovorin, 5-formyl tetrahydrofolic acid]
- pharmacokinetic comparison of leucovorin and levoleucovorin [1]: pharmacokinetically identical

SMILES: Nc1nc2c(c(=O)[nH]1)N1CN(c3ccc(C(=O)N[C@@H](CCC(=O)O)C(=O)O)cc3)C[C@H]1CN2 [[6R]-5,10-MTHF, [6R]-5,10-methylenetetrahydrofolate]
- best ORR [3]: > 50%

SMILES: Nc1nc2c(c(=O)[nH]1)N(C=O)[C@H](CNc1ccc(C(=O)N[C@@H](CCC(=O)O)C(=O)O)cc1)CN2 [d-LV]
- excretion ([1]; kidneys): slowly excreted by the kidneys
